Measured values published in US20120196858A1, “METHOD OF PROMOTING APOPTOSIS AND INHIBITING METASTASIS” (Poniard Pharmaceuticals ,Inc., priority 2009, published 2012).
pIC50: −log10 of the molar value.

How the values were obtained:
[1] = target: T1, FAK Tyr-397 phosphorylation (Homo sapiens, UniProt Q05397); assay: Anti-phospho-specific immunoblotting of FAK Tyr-397 in human breast carcinoma cells; assay type: cell-based
T1 construct: endogenous in cells; host or cells: MDA-MB-231 human breast carcinoma cells
Source text: Immunoblotting: Protein extracts of cells were made using lysis buffer containing 1% Triton X-100, 1% sodium deoxycholate, and 0.1% SDS and were separated by 4-12% SDS-PAGE (sodium dodecyl sulfate polyacrylamide gel electrophoresis) and sequential immunoblotting performed as described in Mitra S K, Lim S T, Chi A, Schlaepfer D D. Intrinsic focal adhesion kinase activity controls orthotopic breast carcinoma metastasis via the regulation of urokinase plasminogen activator expression in a syngeneic tumor model. Oncogene 2006; 25:4429-40. Relative expression levels and phospho-specific antibody reactivity were measured by densitometry analyses of blots using Image J (version 1.42q). Inhibition of FAK and p130Cas tyrosine phosphorylation was quantified by calculating the ratio of pY397 FAK protein to total FAK. Similar analyses were performed for p130Cas using pY410 p130Cas and total p130Cas blot data.

[2] = system: 4T1 cells; assay: Annexin V binding by flow cytometry; assay type: cell-based, murine; conditions: 24 h
Method: Cell pellets were resuspended in 300 p. 1 of PBS containing propidium iodide (PI) (10 μg/ml), DNAse-free RNAse (100 μg/ml, Qiagen), and then incubated at 37° C. with agitation for 1 h. Samples were analyzed by flow cytometry (FACSCalibur, Becton-Dickinson) and cell cycle analyses were performed by ModFit LT3.2 software (Verity software house). Hypodiploid DNA content as a measure of cell apoptosis was detected by PI staining as described ^29. […] Quadrant gates were positioned based on cell autofluorescence (negative) staurosporine-treated (positive) controls. Apoptosis was calculated to be the percent of annexin V-positive cells. In the soft agar assays, apoptosis was quantified by visual inspection of at least 200 cells and was defined as the appearance of membrane blebbing or cell shrinkage. Apoptosis was also detected by appearance of cleaved caspase-3 antibody reactivity in protein lysates by immunoblotting.

T1 sequence (Q05397 whole entry): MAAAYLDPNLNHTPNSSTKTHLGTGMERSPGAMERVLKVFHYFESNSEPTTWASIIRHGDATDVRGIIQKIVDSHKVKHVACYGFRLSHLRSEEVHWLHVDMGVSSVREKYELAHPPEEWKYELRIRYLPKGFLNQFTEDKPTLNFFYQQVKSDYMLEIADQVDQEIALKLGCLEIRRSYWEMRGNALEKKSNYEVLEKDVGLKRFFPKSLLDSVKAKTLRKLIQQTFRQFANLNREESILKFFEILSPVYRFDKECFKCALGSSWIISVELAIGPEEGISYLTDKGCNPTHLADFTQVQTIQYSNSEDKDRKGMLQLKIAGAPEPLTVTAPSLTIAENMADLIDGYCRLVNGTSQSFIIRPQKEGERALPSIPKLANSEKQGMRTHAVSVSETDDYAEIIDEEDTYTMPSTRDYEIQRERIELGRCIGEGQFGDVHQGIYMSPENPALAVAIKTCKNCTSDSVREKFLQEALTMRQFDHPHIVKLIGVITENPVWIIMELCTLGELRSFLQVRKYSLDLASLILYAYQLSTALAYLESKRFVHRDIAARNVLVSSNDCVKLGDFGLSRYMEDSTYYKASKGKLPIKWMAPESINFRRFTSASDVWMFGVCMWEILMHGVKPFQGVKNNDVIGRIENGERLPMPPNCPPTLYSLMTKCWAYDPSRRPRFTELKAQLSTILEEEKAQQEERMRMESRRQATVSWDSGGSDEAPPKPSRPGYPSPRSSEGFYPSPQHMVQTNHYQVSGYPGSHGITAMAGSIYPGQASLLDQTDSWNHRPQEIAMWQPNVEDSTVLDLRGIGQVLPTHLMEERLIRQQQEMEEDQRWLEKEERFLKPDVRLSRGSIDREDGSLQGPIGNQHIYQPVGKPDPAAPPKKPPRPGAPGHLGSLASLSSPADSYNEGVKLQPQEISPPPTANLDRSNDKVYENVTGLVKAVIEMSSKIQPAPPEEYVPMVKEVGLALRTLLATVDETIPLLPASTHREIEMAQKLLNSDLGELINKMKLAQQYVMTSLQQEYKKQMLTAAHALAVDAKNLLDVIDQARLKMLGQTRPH

## CNC(=O)c1ccccc1Nc1cc(Nc2ccc(N3CCOCC3)cc2OC)ncc1C(F)(F)F [PND-1186]
[1]
  pIC50: ~7.00
[2]; 0.1 to 0.4 μM
  annexin V positive staining, suspended cells: 50-60%
[2]; up to 1.0 μM
  annexin V-positive cells, adherent conditions: did not increase
